Experimental data reported in patent US20080275076A1, “Pharmaceutical Compositions Comprising Sirolimus and/or an Analogue Thereof” (priority 2005, published 2008).
Like-named read-outs stand apart in the source and are kept apart here.

Columns and labels:
[1] = cited from earlier work
[2] = Solubility of sirolimus in various vehicles at 70° C. (visual inspection); assay type: physicochemical
Protocol: In the following table is given the solubility of sirolimus in various vehicles (please note that the solubility is determined by visual inspection): […]

Compound: CO[C@H]1C[C@@H]2CC[C@@H](C)[C@@](O)(O2)C(=O)C(=O)N2CCCC[C@H]2C(=O)O[C@H]([C@H](C)C[C@@H]2CC[C@@H](O)[C@H](OC)C2)CC(=O)[C@H](C)/C=C(\C)[C@@H](O)[C@@H](OC)C(=O)[C@H](C)C[C@H](C)/C=C/C=C/C=C/1C [Sirolimus]
- mean time-to-peak concentration (tmax) ([1]; multiple oral doses in renal transplant recipients): approximately 2 hours
- mean time-to-peak concentration (tmax) ([1]; oral, single dose in healthy subjects): approximately 1 hour
- % Sirolimus dissolved 70° C. ([2]; vehicle Gelucire 44/14): 2.5%
- % Sirolimus dissolved 70° C. ([2]; vehicle Monomuls 90 35): 2.2%
- % Sirolimus dissolved 70° C. ([2]; vehicle Monomuls 90L12): 3.9%
- % Sirolimus dissolved 70° C. ([2]; vehicle Monomuls 90 L12/Rylo MD50 (10:90)): 2.5%
- % Sirolimus dissolved 70° C. ([2]; vehicle PEG 6000): 1.5%
- % Sirolimus dissolved 70° C. ([2]; vehicle PEG 6000/Poloxamer 188 (70:30)): 2.4%
- % Sirolimus dissolved 70° C. ([2]; vehicle Poloxamer 188): 1.0%
- % Sirolimus dissolved 70° C. ([2]; vehicle Rylo MD50): 1.5%
